Measured values published in ChEMBL document CHEMBL5528028, “Discovery of benzopyridone cyanoacetates as new type of potential broad-spectrum antibacterial candidates” (Eur J Med Chem, 2024).
Converted amounts (≈) assume the structure as drawn.

Experiments:
Format in all cases: functional
Staphylococcus aureus [1] = experiment: Antibacterial activity against Staphylococcus aureus ATCC 29213 assessed growth inhibition by micro broth dilution method
Staphylococcus aureus [2] = experiment: Antibacterial activity against methicillin-resistant Staphylococcus aureus assessed growth inhibition by micro broth dilution method
Pseudomonas aeruginosa [3] = experiment: Antibacterial activity against Pseudomonas aeruginosa ATCC 27853 assessed growth inhibition by micro broth dilution method
Staphylococcus aureus [4] = experiment: Antibacterial activity against Staphylococcus aureus ATCC 25923 assessed growth inhibition by micro broth dilution method
Pseudomonas aeruginosa [5] = experiment: Antibacterial activity against Pseudomonas aeruginosa assessed growth inhibition by micro broth dilution method
Klebsiella pneumoniae = experiment: Antibacterial activity against Klebsiella pneumonia assessed growth inhibition by micro broth dilution method
Escherichia coli [6] = experiment: Antibacterial activity against Escherichia coli ATCC 25922 assessed growth inhibition by micro broth dilution method
Staphylococcus aureus [7] = experiment: Antibacterial activity against Staphylococcus aureus assessed growth inhibition by micro broth dilution method
Enterococcus faecalis = experiment: Antibacterial activity against Enterococcus faecalis assessed growth inhibition by micro broth dilution method
Escherichia coli [8] = experiment: Antibacterial activity against Escherichia coli assessed growth inhibition by micro broth dilution method
Acinetobacter baumannii = experiment: Antibacterial activity against Acinetobacter baumannii assessed growth inhibition by micro broth dilution method

SMILES: CCCCCCn1cc(C(=O)OCC)c(=O)c2cc(F)c([C-](C#N)C(=O)OCC)cc21.[Na+] (centres undefined)
- MIC (Staphylococcus aureus [1]): 1 mg/L
- MIC (Staphylococcus aureus [2]): 32 mg/L
- MIC (Pseudomonas aeruginosa [3]): 1 mg/L
- MIC (Staphylococcus aureus [4]): 0.5 mg/L
- MIC (Pseudomonas aeruginosa [5]): 0.5 mg/L
- MIC (Klebsiella pneumoniae): 1 mg/L
- MIC (Escherichia coli [6]): 1 mg/L
- MIC (Staphylococcus aureus [7]): 16 mg/L
- MIC (Enterococcus faecalis): 16 mg/L
- MIC (Escherichia coli [8]): 0.5 mg/L
- MIC (Acinetobacter baumannii): 0.5 mg/L

SMILES: CCOC(=O)c1cn(CC2CC2)c2cc([C-](C#N)C(=O)OCC)c(F)cc2c1=O.[Na+] (centres undefined)
- MIC (Staphylococcus aureus [1]): 16 mg/L
- MIC (Staphylococcus aureus [2]): 64 mg/L
- MIC (Pseudomonas aeruginosa [3]): 8 mg/L
- MIC (Staphylococcus aureus [4]): 4 mg/L
- MIC (Pseudomonas aeruginosa [5]): 16 mg/L
- MIC (Klebsiella pneumoniae): 16 mg/L
- MIC (Escherichia coli [6]): 4 mg/L
- MIC (Staphylococcus aureus [7]): 64 mg/L
- MIC (Enterococcus faecalis): 64 mg/L
- MIC (Escherichia coli [8]): 16 mg/L
- MIC (Acinetobacter baumannii): 16 mg/L

SMILES: CCOC(=O)c1cn(CC2CCC2)c2cc([C-](C#N)C(=O)OCC)c(F)cc2c1=O.[Na+] (centres undefined)
- MIC (Staphylococcus aureus [1]): 8 mg/L
- MIC (Staphylococcus aureus [2]): 16 mg/L
- MIC (Pseudomonas aeruginosa [3]): 8 mg/L
- MIC (Staphylococcus aureus [4]): 4 mg/L
- MIC (Pseudomonas aeruginosa [5]): 16 mg/L
- MIC (Klebsiella pneumoniae): 8 mg/L
- MIC (Escherichia coli [6]): 2 mg/L
- MIC (Staphylococcus aureus [7]): 8 mg/L
- MIC (Enterococcus faecalis): 2 mg/L
- MIC (Escherichia coli [8]): 64 mg/L
- MIC (Acinetobacter baumannii): 4 mg/L

SMILES: CCOC(=O)c1cn2c3c(c(F)c(F)cc3c1=O)OC[C@@H]2C
- MIC (Staphylococcus aureus [1]): 64 mg/L (≈ 207 µM)
- MIC (Staphylococcus aureus [2]): 64 mg/L (≈ 207 µM)
- MIC (Pseudomonas aeruginosa [3]): 256 mg/L (≈ 828 µM)
- MIC (Staphylococcus aureus [4]): 32 mg/L (≈ 103 µM)
- MIC (Pseudomonas aeruginosa [5]): 128 mg/L (≈ 414 µM)
- MIC (Klebsiella pneumoniae): 32 mg/L (≈ 103 µM)
- MIC (Escherichia coli [6]): 128 mg/L (≈ 414 µM)
- MIC (Staphylococcus aureus [7]): 128 mg/L (≈ 414 µM)
- MIC (Enterococcus faecalis): 128 mg/L (≈ 414 µM)
- MIC (Escherichia coli [8]): 16 mg/L (≈ 51.7 µM)
- MIC (Acinetobacter baumannii): 32 mg/L (≈ 103 µM)

SMILES: CCOC(=O)c1cn(Cc2ccc([N+](=O)[O-])cc2)c2cc(C(C#N)C(=O)OCC)c(F)cc2c1=O.[Na+] (centres undefined)
- MIC (Staphylococcus aureus [1]): 64 mg/L
- MIC (Staphylococcus aureus [2]): 256 mg/L
- MIC (Pseudomonas aeruginosa [3]): 64 mg/L
- MIC (Staphylococcus aureus [4]): 1 mg/L
- MIC (Pseudomonas aeruginosa [5]): 128 mg/L
- MIC (Klebsiella pneumoniae): 128 mg/L
- MIC (Escherichia coli [6]): 128 mg/L
- MIC (Staphylococcus aureus [7]): 128 mg/L
- MIC (Enterococcus faecalis): 32 mg/L
- MIC (Escherichia coli [8]): 0.5 mg/L
- MIC (Acinetobacter baumannii): 128 mg/L

SMILES: CCOC(=O)c1cn(CC2CCC2)c2cc(F)c(F)cc2c1=O
- MIC (Staphylococcus aureus [1]): 256 mg/L (≈ 797 µM)
- MIC (Staphylococcus aureus [2]): 256 mg/L (≈ 797 µM)
- MIC (Pseudomonas aeruginosa [3]): 256 mg/L (≈ 797 µM)
- MIC (Staphylococcus aureus [4]): 16 mg/L (≈ 49.8 µM)
- MIC (Pseudomonas aeruginosa [5]): 32 mg/L (≈ 99.6 µM)
- MIC (Klebsiella pneumoniae): 32 mg/L (≈ 99.6 µM)
- MIC (Escherichia coli [6]): 128 mg/L (≈ 398 µM)
- MIC (Staphylococcus aureus [7]): 64 mg/L (≈ 199 µM)
- MIC (Enterococcus faecalis): 128 mg/L (≈ 398 µM)
- MIC (Escherichia coli [8]): 16 mg/L (≈ 49.8 µM)
- MIC (Acinetobacter baumannii): 128 mg/L (≈ 398 µM)

SMILES: CCOC(=O)c1cn(C2CC2)c2cc(F)c(F)cc2c1=O
- MIC (Staphylococcus aureus [1]): 128 mg/L (≈ 436 µM)
- MIC (Staphylococcus aureus [2]): 256 mg/L (≈ 873 µM)
- MIC (Pseudomonas aeruginosa [3]): 256 mg/L (≈ 873 µM)
- MIC (Staphylococcus aureus [4]): 16 mg/L (≈ 54.6 µM)
- MIC (Pseudomonas aeruginosa [5]): 32 mg/L (≈ 109 µM)
- MIC (Klebsiella pneumoniae): 64 mg/L (≈ 218 µM)
- MIC (Escherichia coli [6]): 64 mg/L (≈ 218 µM)
- MIC (Staphylococcus aureus [7]): 64 mg/L (≈ 218 µM)
- MIC (Enterococcus faecalis): 128 mg/L (≈ 436 µM)
- MIC (Escherichia coli [8]): 16 mg/L (≈ 54.6 µM)
- MIC (Acinetobacter baumannii): 256 mg/L (≈ 873 µM)

SMILES: CCOC(=O)C(C#N)c1cc2c(cc1F)c(=O)c(C(=O)O)cn2Cc1ccc(F)cc1F (centres undefined)
- MIC (Staphylococcus aureus [1]): 4 mg/L (≈ 9 µM)
- MIC (Staphylococcus aureus [2]): 8 mg/L (≈ 18 µM)
- MIC (Pseudomonas aeruginosa [3]): 2 mg/L (≈ 4.5 µM)
- MIC (Staphylococcus aureus [4]): 1 mg/L (≈ 2.25 µM)
- MIC (Pseudomonas aeruginosa [5]): 16 mg/L (≈ 36 µM)
- MIC (Klebsiella pneumoniae): 0.5 mg/L (≈ 1.13 µM)
- MIC (Escherichia coli [6]): 0.5 mg/L (≈ 1.13 µM)
- MIC (Staphylococcus aureus [7]): 4 mg/L (≈ 9 µM)
- MIC (Enterococcus faecalis): 8 mg/L (≈ 18 µM)
- MIC (Escherichia coli [8]): 16 mg/L (≈ 36 µM)
- MIC (Acinetobacter baumannii): 2 mg/L (≈ 4.5 µM)

SMILES: CCOC(=O)c1cn(CC2CCCCC2)c2cc(F)c(F)cc2c1=O
- MIC (Staphylococcus aureus [1]): 64 mg/L (≈ 183 µM)
- MIC (Staphylococcus aureus [2]): 128 mg/L (≈ 366 µM)
- MIC (Pseudomonas aeruginosa [3]): 256 mg/L (≈ 733 µM)
- MIC (Staphylococcus aureus [4]): 2 mg/L (≈ 5.72 µM)
- MIC (Pseudomonas aeruginosa [5]): 64 mg/L (≈ 183 µM)
- MIC (Klebsiella pneumoniae): 8 mg/L (≈ 22.9 µM)
- MIC (Escherichia coli [6]): 128 mg/L (≈ 366 µM)
- MIC (Staphylococcus aureus [7]): 16 mg/L (≈ 45.8 µM)
- MIC (Enterococcus faecalis): 128 mg/L (≈ 366 µM)
- MIC (Escherichia coli [8]): 4 mg/L (≈ 11.4 µM)
- MIC (Acinetobacter baumannii): 256 mg/L (≈ 733 µM)

SMILES: CCOC(=O)c1cn(CC2CCCC2)c2cc(F)c(F)cc2c1=O
- MIC (Staphylococcus aureus [1]): 128 mg/L (≈ 382 µM)
- MIC (Staphylococcus aureus [2]): 256 mg/L (≈ 763 µM)
- MIC (Pseudomonas aeruginosa [3]): 256 mg/L (≈ 763 µM)
- MIC (Staphylococcus aureus [4]): 16 mg/L (≈ 47.7 µM)
- MIC (Pseudomonas aeruginosa [5]): 128 mg/L (≈ 382 µM)
- MIC (Klebsiella pneumoniae): 32 mg/L (≈ 95.4 µM)
- MIC (Escherichia coli [6]): 128 mg/L (≈ 382 µM)
- MIC (Staphylococcus aureus [7]): 64 mg/L (≈ 191 µM)
- MIC (Enterococcus faecalis): 256 mg/L (≈ 763 µM)
- MIC (Escherichia coli [8]): 8 mg/L (≈ 23.9 µM)
- MIC (Acinetobacter baumannii): 256 mg/L (≈ 763 µM)

SMILES: CCOC(=O)c1cn(CC(=O)N2CCN(C(=O)OC(C)(C)C)CC2)c2cc(F)c(F)cc2c1=O
- MIC (Staphylococcus aureus [1]): 64 mg/L (≈ 133 µM)
- MIC (Staphylococcus aureus [2]): 64 mg/L (≈ 133 µM)
- MIC (Pseudomonas aeruginosa [3]): 32 mg/L (≈ 66.7 µM)
- MIC (Staphylococcus aureus [4]): 128 mg/L (≈ 267 µM)
- MIC (Pseudomonas aeruginosa [5]): 64 mg/L (≈ 133 µM)
- MIC (Klebsiella pneumoniae): 256 mg/L (≈ 534 µM)
- MIC (Escherichia coli [6]): 64 mg/L (≈ 133 µM)
- MIC (Staphylococcus aureus [7]): 256 mg/L (≈ 534 µM)
- MIC (Enterococcus faecalis): 64 mg/L (≈ 133 µM)
- MIC (Escherichia coli [8]): 4 mg/L (≈ 8.34 µM)
- MIC (Acinetobacter baumannii): 64 mg/L (≈ 133 µM)

SMILES: CCCn1cc(C(=O)OCC)c(=O)c2cc(F)c(F)cc21
- MIC (Staphylococcus aureus [1]): 128 mg/L (≈ 433 µM)
- MIC (Staphylococcus aureus [2]): 256 mg/L (≈ 867 µM)
- MIC (Pseudomonas aeruginosa [3]): 256 mg/L (≈ 867 µM)
- MIC (Staphylococcus aureus [4]): 256 mg/L (≈ 867 µM)
- MIC (Pseudomonas aeruginosa [5]): 128 mg/L (≈ 433 µM)
- MIC (Klebsiella pneumoniae): 64 mg/L (≈ 217 µM)
- MIC (Escherichia coli [6]): 128 mg/L (≈ 433 µM)
- MIC (Staphylococcus aureus [7]): 64 mg/L (≈ 217 µM)
- MIC (Enterococcus faecalis): 256 mg/L (≈ 867 µM)
- MIC (Escherichia coli [8]): 32 mg/L (≈ 108 µM)
- MIC (Acinetobacter baumannii): 256 mg/L (≈ 867 µM)

SMILES: CCOC(=O)c1cn(Cc2cnc(Cl)s2)c2cc(F)c(F)cc2c1=O
- MIC (Staphylococcus aureus [1]): 32 mg/L (≈ 83.2 µM)
- MIC (Staphylococcus aureus [2]): 32 mg/L (≈ 83.2 µM)
- MIC (Pseudomonas aeruginosa [3]): 16 mg/L (≈ 41.6 µM)
- MIC (Staphylococcus aureus [4]): 4 mg/L (≈ 10.4 µM)
- MIC (Pseudomonas aeruginosa [5]): 64 mg/L (≈ 166 µM)
- MIC (Klebsiella pneumoniae): 64 mg/L (≈ 166 µM)
- MIC (Escherichia coli [6]): 32 mg/L (≈ 83.2 µM)
- MIC (Staphylococcus aureus [7]): 256 mg/L (≈ 665 µM)
- MIC (Enterococcus faecalis): 32 mg/L (≈ 83.2 µM)
- MIC (Escherichia coli [8]): 8 mg/L (≈ 20.8 µM)
- MIC (Acinetobacter baumannii): 32 mg/L (≈ 83.2 µM)

SMILES: CCOC(=O)c1cn(Cc2ccc(F)cc2F)c2cc(F)c(F)cc2c1=O
- MIC (Staphylococcus aureus [1]): 256 mg/L (≈ 675 µM)
- MIC (Staphylococcus aureus [2]): 256 mg/L (≈ 675 µM)
- MIC (Pseudomonas aeruginosa [3]): 256 mg/L (≈ 675 µM)
- MIC (Staphylococcus aureus [4]): 256 mg/L (≈ 675 µM)
- MIC (Pseudomonas aeruginosa [5]): 64 mg/L (≈ 169 µM)
- MIC (Klebsiella pneumoniae): 0.25 mg/L (≈ 0.659 µM)
- MIC (Escherichia coli [6]): 128 mg/L (≈ 337 µM)
- MIC (Staphylococcus aureus [7]): 256 mg/L (≈ 675 µM)
- MIC (Enterococcus faecalis): 256 mg/L (≈ 675 µM)
- MIC (Escherichia coli [8]): 16 mg/L (≈ 42.2 µM)
- MIC (Acinetobacter baumannii): 16 mg/L (≈ 42.2 µM)
